In patent US12133895B2, “Biodegradable functional polycarbonate nanoparticle carries for delivering molecular cargo” (International Business Machines Corporation, priority 2018, dated 2024):

Assay: Oxidation (discoloration) of AMP in PBS
Format: physicochemical
Details: free AMP dissolved in PBS
Description: FIG. 10 illustrates a diagram of example, non-limiting photos 1000 of a first solution of free AMP and a second solution of the second loaded polymer 602 having the exemplary structure depicted in FIG. 6 (e.g., conjugated with AMP) in accordance with one or more embodiments described herein. Repetitive description of like elements employed in other embodiments described herein is omitted for sake of brevity. As shown in the photos 1000, the right vial contains free AMP dispersed in PBS, and the left vial contains of the second loaded polymer 602 having the exemplary structure depicted in FIG. 6 (e.g., conjugated with AMP) dispersed in PBS. The various photos 1000 can show the state of the two solutions over a 360 minute time period.
Both solutions begin colorless, wherein the solutions become discolored in response to oxidation.

onset of oxidation: nearly immediately
Compound: CN1CCc2cccc3c2[C@H]1Cc1ccc(O)c(O)c1-3 [AMP, apomorphine]
